Measured values: patent US20130274233A1, “MODULATORS OF HEDGEHOG SIGNALING PATHWAY” (priority 2012, published 2013)
Structures can show the parent of a compound that is named as a salt.

Tests used:
Format in all cases: cell-based
Smo::EGFP = target: T1, Smo::EGFP (Homo sapiens, UniProt Q99835); assay: High content assay of Shh-induced Smo::EGFP accumulation in the primary cilium (Smo::EGFP/Ivs::tagRFPT NIH/3T3 cells); conditions: for accumulation of Smo on the PC: in either the presence or absence of Shh; for inhibition of Shh-induced Smo::EGFP accumulation in the PC: in the presence of Shh; for Smo antagonist activity in SAR assays: Smo::EGFP/Ivs::tagRFPT cells primed with compounds for 3 hours before adding Shh
T1 construct: expressed in transfected cells
T1 sequence (Q99835 28-787): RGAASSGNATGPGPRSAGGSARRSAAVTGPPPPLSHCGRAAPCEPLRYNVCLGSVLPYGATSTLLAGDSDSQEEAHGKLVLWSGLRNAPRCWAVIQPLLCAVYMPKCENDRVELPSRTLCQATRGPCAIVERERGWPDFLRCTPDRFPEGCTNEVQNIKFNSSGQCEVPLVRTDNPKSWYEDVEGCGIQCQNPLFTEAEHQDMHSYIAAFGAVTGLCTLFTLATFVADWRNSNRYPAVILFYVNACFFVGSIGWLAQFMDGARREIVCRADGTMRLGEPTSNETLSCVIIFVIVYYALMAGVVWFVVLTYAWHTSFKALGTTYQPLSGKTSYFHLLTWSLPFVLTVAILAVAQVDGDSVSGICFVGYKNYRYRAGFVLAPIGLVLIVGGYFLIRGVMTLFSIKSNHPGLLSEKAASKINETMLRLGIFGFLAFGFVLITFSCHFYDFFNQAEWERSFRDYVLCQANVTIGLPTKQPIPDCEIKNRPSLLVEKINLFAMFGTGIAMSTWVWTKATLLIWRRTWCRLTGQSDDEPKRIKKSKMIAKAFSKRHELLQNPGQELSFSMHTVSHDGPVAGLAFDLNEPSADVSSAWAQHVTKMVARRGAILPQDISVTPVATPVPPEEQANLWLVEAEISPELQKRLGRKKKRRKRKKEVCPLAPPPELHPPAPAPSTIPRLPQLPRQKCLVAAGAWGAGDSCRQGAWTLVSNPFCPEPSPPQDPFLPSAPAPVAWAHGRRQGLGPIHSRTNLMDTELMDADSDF
From the text: (§1) NIH/3T3 cells were maintained in DMEM containing 10% (v/v) calf serum, penicillin, streptomycin, and L-glutamine. HEK293, L, cos 7, and suFU−/− mouse embryonic fibroblast cells were maintained in DMEM containing 10% (v/v) fetal bovine serum, penicillin, streptomycin, and L-glutamine. Smo::EGFP, SmoM2::GFP, and Ivs::tagRFPT were cloned into pBabe to generate retroviral particles for infection. Smo::EGFP/Ivs::tagRFPT and SmoM2::GFP/Ivs::tagRFPT stable cell lines were generated through viral infection of NIH/3T3^12. A ShhLightII Gli reporter cell line was obtained from the American Type Culture Collection (ATCC) and used in luciferase reporter assays to measure Hh pathway activity. The cell line contains a stably integrated Gli-responsive Firefly luciferase reporter and a constitutive Renilla luciferase expression construct^33. Subclones expressing Smo or SmoM2 in ShhLightII cells were used for chemical epistasis analyses.
(§2) Cells were cultured and treated in 384-well imaging plate precoated with poly-D-Lysine (Greiner Bio-one), fixed with 4% paraformaldehyde (Electron Microscopy Sciences), and stained with Hoechst (Invitrogen). Images were collected using Opera High Content Screening System (Perkin Elmer). Activityl)ase (IDBS Inc, Emeryvill, Calif.) and Pipeline Pilot (Accelrys, Inc. San Diego, Calif.) were used for high content screening data management and analysis. Acapella 2.0 software (Evotec Technologies/PerkinElmer) was used to perform multi-parametrical high content image quantification. All the images for comparison were scanned with identical microscopic settings and analyzed with the same input parameters.
(§3) Acapella 2.0 software (Evotec Technologies/PerkinElmer) was used to perform multi-parametric high content image quantification. Our image analysis script used Ivs::tagREPT to first determine the location of the PC and then Smo::EGFP to quantify the level of Smo present in the cilium.
(§4) The inventors used the spot-finding algorithm in the RFP channel to find Ivs-rich spots. Each non-overlapping spot was based on a maximum 8 pixel-radius (when using a 40× objective) around a central intensity peak of 5 pixels. A distance of at least 10 pixels was required between adjacent spot centers. Spot peaks had to exceed thresholds of relative intensity compared to the remaining body of the spot as well as to the entire image. The average, maximum and total RFP intensity of each spot were measured. The spots with sufficiently high absolute maxima to pass the selected threshold were classified as positive spots. To form candidate cilia, the inventors selected the brightest 15% of the pixels in each positive spot and merged those pixels into objects so that the brightest parts of adjacent spots could form single, larger cilia-shaped objects. To qualify the candidate cilia as true Ivs-positive cilia, the width of the objects created from merging the brightest pixels in each spot had to be at least 2 pixels and the length to half-width ratio had to exceed 3. (i.e. a 3-pixel long by 2-pixel wide cilium was the minimum accepted cilium size and the length had to be at least 1.5 fold of the width). The mean GFP intensity within these Ivs-positive cilia was used to estimate the ciliary level of Smo protein. The inventors subtracted the background of the mean GFP intensity in the 3-pixel wide area around each candidate cilium to avoid some false positives. Those Ivs-positive cilia that exceed the final mean GFP intensity threshold set for each experiment were deemed Smo-positive cilia.
Hoechst staining was used to determine the total number of nuclei per well.
Measurements of the geometry of the cilia as well as the total fluorescent intensities of each cilium in the Smo- and Ivs-channels were used to determine if any of the compounds were having unusual effects on cilia size, intensity or frequency of observation or combinations of all three characteristics.

Hh pathway activity = assay: Gli-luciferase reporter assay, Shh-induced Hh pathway activity (ShhLightII cells); conditions: for inhibition of Shh-induced Hh pathway activity, Gli-luciferase reporter: Shh stimulation
From the text: as §1
(§5) Hh activity assays were performed using ShhLightll cells, Smo/Lightll cells, SmoM2/Lightll cells, and suFU−/− mouse embryonic fibroblasts. In the suFU−/− cells, Hh activity was measured after co-transfection with Gli driven firefly luciferase and TK-renilla luciferase reporters^41. Wnt activity was measured in 293 cells co-transfected with Top-flash and TK-renilla luciferase reporters^42. Cells were cultured and treated in 96 well assay plates (Corning) and incubated with Duo-Glo luciferase substrates (Promega) to measure firefly and renilla luciferase activity sequentially using a Top Count NX Microplate Scintillation and Luminescence Counter (Perkin Elmer). The renilla luciferase signal was used to normalize the firefly reporter activity.
(§6) ShhLightII cells and SmoM2/LightII cells were cultured and treated in 96 well assay plates (Corning) and incubated with Duo-Glo luciferase substrates (Promega) to sequentially measure firefly and renilla luciferase activity. Smo, or GFP, expression plasmids were co-transfected into 3T3 cells together with a Gli-responsive firefly reporter and a TK-renilla luciferase reporter contruct to monitor effects of Smo overexpression. Co-transfection of the two reporter constructs was conducted in assays measuring Hh pathway activity in suFU−/− cells. Wnt activity was measured following co-transfection of a Top-flash and renilla luciferase reporter. In both Hh and Wnt activity assays, renilla luciferase reporter activity, or mass of protein, was used to normalize expression values. Luciferase signal was read by TopCount NX Microplate Scintillation and Luminescence Counter (Perkin Elmer). Quantitative PCR probes for Ptch1, Gli1, and β-actin were purchased from Applied Biosystems. Reactions and measurements were performed using on an Applied Biosystems 7900HT at Harvard FAS Center of System Biology. β-actin was used to normalize Ptch1 and Gil1 values.

Wnt signaling activity = assay: Wnt Top-flash reporter assay; conditions: with or without Wnt3a
Method: as §5, §6

SmoM2::GFP = target: T2, SmoM2::GFP (Homo sapiens, UniProt Q99835, W535L); assay: Ciliary localization of SmoM2::GFP (3T3/SmoM2::GFP Overexpression/Ivs::tagRFPT); conditions: SmoM2::EGFP overexpressing cells
T2 construct: expressed in transfected cells
T2 sequence (Q99835 28-787 W535L): as the sequence (Q99835 28-787) above, with W508L counted along it
From the text: as §1, §2, §3

SmoM2 = assay: Gli-luciferase reporter induced by SmoM2::GFP overexpression (SmoM2/LightII cells); conditions: SmoM2 overexpression
From the text: as §1, §5, §6

primary cilium (PC) = assay: Primary cilium markers in the high content assay (Ivs::tagRFPT, Arl13b, acetylated tubulin); conditions: Ivs::tagRFPT and other PC markers
From the text: as §3
as §4, with “cilia. […]” for “cilia.”
Cells were cultured and treated in 384-well imaging plate precoated with poly-D-Lysine (Greiner Bio-one), fixed with 4% paraformaldehyde (Electron Microscopy Sciences), and stained with Hoechst (Invitrogen). […] Acapella 2.0 software (Evotec Technologies/PerkinElmer) was used to perform multi-parametric image quantification. All the comparative images were scanned with identical microscopic setting and analyzed with the same input parameters.

**Q.** Which “accumulation of Smo on the PC” value (Smo::EGFP) does the source give for 4-hydroxytamoxifen here?
**A.** did not alter the accumulation of Smo on the PC

**Q.** For `Cl.Cl.Clc1ccccc1CNCC1CCC(CNCc2ccccc2Cl)CC1` (centres unmarked) [AY9944], which “inhibition of Shh-induced Smo::EGFP accumulation in the PC” value (Smo::EGFP) is on record?
**A.** inhibited

**Q.** And the “inhibition of Shh-induced Hh pathway activity, Gli-luciferase reporter” value (Hh pathway activity)?
**A.** inhibited

**Q.** `CCCC1O[C@@H]2C[C@H]3[C@@H]4CCC5=CC(=O)C=C[C@]5(C)[C@H]4[C@@H](O)C[C@]3(C)[C@]2(C(=O)CO)O1` (some centres unmarked) [Bud, Budesonide] was tested. Which “effect on Wnt pathway reporter activity” value (Wnt signaling activity) did it give?
**A.** no effect

**Q.** Which results are given for `CC(C)C(=O)OCC(=O)[C@@]12O[C@H](C3CCCCC3)O[C@@H]1C[C@H]1[C@@H]3CCC4=CC(=O)C=C[C@]4(C)[C@H]3[C@@H](O)C[C@@]12C` [Cic, Ciclesonide]?
**A.** inhibition of Shh-induced Smo::EGFP accumulation in the PC (Smo::EGFP): inhibition of Smo accumulation in the PC; inhibition of Shh-induced Hh pathway activity, Gli-luciferase reporter (Hh pathway activity): inhibited; effect on SmoM2 ciliary localization (SmoM2::GFP): attenuated; effect on SmoM2 driven Hh pathway activity, transcriptional reporter (SmoM2): attenuated; effect on primary cilium markers / ciliary structure (primary cilium (PC)): did not disrupt

**Q.** How did the IC50 (Smo::EGFP; 3T3/Smo::GFP/Ivs::tagRFPT cells, stimulus Shh, read-out: IC50, inhibition of Shh-induced Smo::GFP ciliary accumulaton) turn out when `CC(C)c1ccc(/C=N/NC(=O)c2ccc(O)cc2)cc1` [GSK4716] was run?
**A.** 2 µM

**Q.** And the IC50 (Hh pathway activity; Mus musculus, Shh Light II, 3T3/Shh-LightII cells, stimulus Shh, read-out: IC50, inhibition of Shh-induced expression of Gli-luciferase reporter)?
**A.** 10 µM

**Q.** With `N#CC(C(=O)c1ccc(Cl)cc1Cl)c1nc2ccccc2c(=O)[nH]1` (centres unmarked) [HPI-4] as the compound, how does the “inhibition of Shh-induced Hh pathway activity, Gli-luciferase reporter” value (Hh pathway activity) read?
**A.** appear as Hh pathway antagonists

**Q.** And the “effect on primary cilium markers / ciliary structure” value (primary cilium (PC))?
**A.** decrease in the Ivs::tagRFPT ciliary signal

**Q.** What does the source list for `CC(=O)N1CCN(c2ccc(OCC3COC(Cn4ccnc4)(c4ccc(Cl)cc4Cl)O3)cc2)CC1` (centres unmarked) [KCZ, Ketoconazole]?
**A.** inhibition of Shh-induced Smo::EGFP accumulation in the PC (Smo::EGFP): inhibited; inhibition of Shh-induced Hh pathway activity, Gli-luciferase reporter (Hh pathway activity): inhibited

**Q.** With `O=C(N/N=C/c1ccccc1)c1ccc(O)cc1` [RL-0070462] as the compound, how does the “Smo antagonist activity in SAR assays” value (Smo::EGFP) read?
**A.** dramatically impaired the activity

**Q.** How did the “Smo antagonist activity in SAR assays” value (Smo::EGFP) turn out when `CCN(CC)c1ccc(/C=N/NC(=O)c2ccccc2)cc1` [RL-0070463] was run?
**A.** moderately decreased the activity

**Q.** Which “Smo antagonist activity in SAR assays” value (Smo::EGFP) does the source give for `CCN(CC)c1ccc(/C=N/NC(=O)c2ccc(OC)cc2)cc1` [RL-0070464] here?
**A.** can be tolerated

**Q.** How did the “accumulation of Smo on the PC” value (Smo::EGFP) turn out when `CC/C(=C(/CC)c1ccc(O)cc1)c1ccc(O)cc1` [diethylstilbestrol] was run?
**A.** did not alter the accumulation of Smo on the PC

**Q.** Which “accumulation of Smo on the PC” value (Smo::EGFP) does the source give for `CC[C@H](c1ccc(O)cc1)[C@@H](CC)c1ccc(O)cc1` [hexestrol] here?
**A.** did not alter the accumulation of Smo on the PC

**Q.** For `CC/C(=C(\c1ccccc1)c1ccc(OCCN(C)C)cc1)c1ccccc1` [tamoxifen citrate], which “accumulation of Smo on the PC” value (Smo::EGFP) is on record?
**A.** did not alter the accumulation of Smo on the PC

**Q.** Which results are given for `CC[C@]1(O)C[C@@H]2CN(CCc3c([nH]c4ccccc34)[C@@](C(=O)OC)(c3cc4c(cc3OC)N(C)[C@H]3[C@@](O)(C(=O)OC)[C@H](OC(C)=O)[C@]5(CC)C=CCN6CC[C@]43[C@@H]65)C2)C1` [vinblastine]?
**A.** inhibition of Shh-induced Hh pathway activity, Gli-luciferase reporter (Hh pathway activity): appear as Hh pathway antagonists; effect on primary cilium markers / ciliary structure (primary cilium (PC)): decrease in the Ivs::tagRFPT ciliary signal
